Reference: patent US20060276464A1, “Diarylsulfone sulfonamides and use thereof” (Wyeth, priority 2005, published 2006)
Read-outs that look alike come from different tables or passages of the source.

Target: T1, SFRP-1 (Homo sapiens, UniProt Q8N474)
T1 sequence (Q8N474 32-314): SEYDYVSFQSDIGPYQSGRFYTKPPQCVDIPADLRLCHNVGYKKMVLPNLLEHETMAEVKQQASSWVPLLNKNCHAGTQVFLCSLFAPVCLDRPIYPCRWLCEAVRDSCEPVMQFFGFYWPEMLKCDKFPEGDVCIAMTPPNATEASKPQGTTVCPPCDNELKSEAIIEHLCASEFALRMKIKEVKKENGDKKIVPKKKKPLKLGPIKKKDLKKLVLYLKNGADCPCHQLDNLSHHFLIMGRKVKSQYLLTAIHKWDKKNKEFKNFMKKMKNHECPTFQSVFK
Assay: Cell-based assay for in vitro measurement of SFRP-1/SARP2 antagonist activity (U2OS cells co-transfected with 16x TCF-tk-Luciferase reporter, Wnt and hSFRP-1);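 note: U2OS cells co-transfected with a TCF-tk luciferase reporter, a Wnt vector, hSFRP-1 or empty vector and CMV-βgal, luciferase luminescence read in cell lysates alongside βgal activity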
Details: for fold induction at 15 µM / fold induction at 30 µM / fold induction at 10 µM / fold induction at 20 µM: U2OS; for fold induction at 10 µM: read-out: Fold Induction with SFRP-1, U2OS cells, single dose 10 μM, luciferase reporter, fold induction over SFRP-1 control

[1] = read-out: Fold Induction with SFRP-1, Conc 15 μM, with SFRP-1, fold induction over SFRP-1 control, single dose
[2] = read-out: Fold Induction without SFRP-1, Conc 15 μM, without SFRP-1, single dose
[3] = read-out: Fold Induction with SFRP-1, Conc 30 μM, with SFRP-1, fold induction over SFRP-1 control, single dose
[4] = read-out: Fold Induction without SFRP-1, Conc 30 μM, without SFRP-1, single dose
[5] = read-out: Fold Induction with SFRP-1, Conc 15 μM, single dose, luciferase reporter, fold induction over SFRP-1 control, cells with SFRP-1
[6] = read-out: Fold Induction without SFRP-1, Conc 15 μM, single dose, luciferase reporter, cells without SFRP-1 (specificity control)

## CCc1ccc(S(=O)(=O)c2ccccc2)cc1S(=O)(=O)N1CCN(CCN2CCCC2)CC1 [Example 288, 1-{[2-ethyl-5-(phenylsulfonyl)phenyl]sulfonyl}-4-(2-pyrrolidin-1-ylethyl)piperazine]
[1]
  fold induction at 15 µM: 3.6
[2]
  fold induction at 15 µM: 1.7

## COc1ccc(S(=O)(=O)c2ccccc2)cc1S(=O)(=O)NCCCN1CCCC1 [Example 243, 2-methoxy-5-(phenylsulfonyl)-N-(3-pyrrolidin-1-ylpropyl)benzenesulfonamide]
[1]
  fold induction at 15 µM: 2.4
[2]
  fold induction at 15 µM: 1.9

## CCOc1cc(CCNS(=O)(=O)c2cc(S(=O)(=O)c3ccccc3)ccc2C)ccc1OC [Example 54, N-[2-(3-ethoxy-4-methoxyphenyl)ethyl]-2-methyl-5-(phenylsulfonyl)benzenesulfonamide]
Conc 30 μM, with SFRP-1, fold induction over SFRP-1 control, single dose
  Fold Induction with SFRP-1: 3.6 fold
[3]
  fold induction at 30 µM: 3.8
[4]
  fold induction at 30 µM: 1.1

## Cc1ccc(S(=O)(=O)c2ccc(F)cc2)cc1S(=O)(=O)NCCc1ccncc1 [Example 165, 5-[(4-fluorophenyl)sulfonyl]-2-methyl-N-(2-pyridin-4-ylethyl)benzenesulfonamide]
[1]
  fold induction at 15 µM: 3.3
[2]
  fold induction at 15 µM: 1

## Cc1ccc(S(=O)(=O)c2ccccc2)cc1S(=O)(=O)NCCc1ccncc1 [Example 208, 2-methyl-5-(phenylsulfonyl)-N-(2-pyridin-4-ylethyl)benzenesulfonamide]
[1]
  fold induction at 15 µM: 2.6
[2]
  fold induction at 15 µM: 0.9

## COc1ccc(S(=O)(=O)c2ccc(C)c(S(=O)(=O)NCCCn3ccnc3)c2)cc1 [Example 315, N-[3-(1H-imidazol-1-yl)propyl]-5-[(4-methoxyphenyl)sulfonyl]-2-methylbenzenesulfonamide]
[1]
  fold induction at 15 µM: 1.8
[2]
  fold induction at 15 µM: 1.3

## Cc1ccc(S(=O)(=O)c2ccccc2)cc1S(=O)(=O)NC1CCN(C(=O)C2CC2)CC1 [Example 475, N-[1-(cyclopropylcarbonyl)piperidin-4-yl]-2-methyl-5-(phenylsulfonyl)benzenesulfonamide]
[1]
  fold induction at 15 µM: 1.9
[2]
  fold induction at 15 µM: 1.1

## COc1cccc(S(=O)(=O)c2ccc(C)c(S(=O)(=O)NCCCn3ccnc3)c2)c1 [Example 323, N-[3-(1H-imidazol-1-yl)propyl]-5-[(3-methoxyphenyl)sulfonyl]-2-methylbenzenesulfonamide]
[1]
  fold induction at 15 µM: 2.6
[2]
  fold induction at 15 µM: 0.9

## Cc1cc(C)c(S(=O)(=O)c2ccccc2)cc1S(=O)(=O)NCCCn1ccnc1 [Example 325, N-[3-(1H-imidazol-1-yl)propyl]-2,4-dimethyl-5-(phenylsulfonyl)benzenesulfonamide]
[1]
  fold induction at 15 µM: 3
[2]
  fold induction at 15 µM: 1.1

## Cc1ccc(S(=O)(=O)c2ccccc2)cc1S(=O)(=O)NCCC1CCCN1C (stereo not drawn) [Example 207, 2-methyl-N-[2-(1-methylpyrrolidin-2-yl)ethyl]-5-(phenylsulfonyl)benzenesulfonamide]
[1]
  fold induction at 15 µM: 2.3
[2]
  fold induction at 15 µM: 1.1

## CC(C)(C)OC(=O)N1CCC(NS(=O)(=O)c2cc(S(=O)(=O)c3ccccc3)ccc2Cl)CC1 [Example 623, tert-butyl 4-({[2-chloro-5-(phenylsulfonyl)phenyl]sulfonyl}amino)piperidine-1-carboxylate]
[5]
  fold induction at 15 µM: 2.2
[6]
  fold induction at 15 µM: 1.1

## Cc1ccc(S(=O)(=O)c2ccccn2)cc1S(=O)(=O)NCCCn1ccnc1 [Example 378, N-[3-(1H-imidazol-1-yl)propyl]-2-methyl-5-(pyridin-2-ylsulfonyl)benzenesulfonamide]
[1]
  fold induction at 15 µM: 1.7
[2]
  fold induction at 15 µM: 1.1

## Cc1ccc(S(=O)(=O)c2ccccc2)cc1S(=O)(=O)NC1CCN(Cc2ccccc2)C1 (stereo not drawn) [Example 414, N-(1-benzylpyrrolidin-3-yl)-2-methyl-5-(phenylsulfonyl)benzenesulfonamide]
[1]
  fold induction at 15 µM: 2
[2]
  fold induction at 15 µM: 1.3

## Cc1ccc(S(=O)(=O)c2ccccc2-c2ccccc2)cc1S(=O)(=O)NCCc1ccccn1 [Example 432, 5-(biphenyl-2-ylsulfonyl)-2-methyl-N-(2-pyridin-2-ylethyl)benzenesulfonamide]
[1]
  fold induction at 15 µM: 1.9
[2]
  fold induction at 15 µM: 0.9

## CCc1ccc(S(=O)(=O)c2ccccc2)cc1S(=O)(=O)NCCc1ccccc1F [Example 147, 2-ethyl-N-[2-(2-fluorophenyl)ethyl]-5-(phenylsulfonyl)benzenesulfonamide]
[1]
  fold induction at 15 µM: 3.2
[2]
  fold induction at 15 µM: 1

## O=S(=O)(NCCc1ccc(Br)cc1)c1cc(S(=O)(=O)c2ccccc2)ccc1C(F)(F)F [Example 960, N-[2-(4-bromophenyl)ethyl]-5-(phenylsulfonyl)-2-(trifluoromethyl)benzenesulfonamide]
  fold induction at 10 µM: 1.4

## CN(C)CCNS(=O)(=O)c1cccc(S(=O)(=O)c2ccccc2)c1 [Example 194, N-[2-(dimethylamino)ethyl]-3-(phenylsulfonyl)benzenesulfonamide]
[3]
  fold induction at 30 µM: 1.3
[4]
  fold induction at 30 µM: 1.2

## Cc1ccc(S(=O)(=O)c2ccc(F)cc2)cc1S(=O)(=O)NCCC(=O)O [Example 180, N-({5-[(4-fluorophenyl)sulfonyl]-2-methylphenyl}sulfonyl)-beta-alanine]
[1]
  fold induction at 15 µM: 1.2
[2]
  fold induction at 15 µM: 1

## Cc1ccc(S(=O)(=O)c2ccccc2)cc1S(=O)(=O)NCCc1c[nH]c2ccccc12 [Example 294, N-[2-(1H-indol-3-yl)ethyl]-2-methyl-5-(phenylsulfonyl)benzenesulfonamide]
[1]
  fold induction at 15 µM: 2.3
[2]
  fold induction at 15 µM: 1.5

## COCCCNS(=O)(=O)c1cccc(S(=O)(=O)c2ccccc2)c1 [Example 195, N-(3-methoxypropyl)-3-(phenylsulfonyl)benzenesulfonamide]
[3]
  fold induction at 30 µM: 1.2
[4]
  fold induction at 30 µM: 0.9

## O=S(=O)(NC1CCOCC1)c1cc(S(=O)(=O)c2ccccc2)ccc1Cl [Example 361, 2-chloro-5-(phenylsulfonyl)-N-(tetrahydro-2H-pyran-4-yl)benzenesulfonamide]
[1]
  fold induction at 15 µM: 2.3
[2]
  fold induction at 15 µM: 0.9

## Cc1ccc(S(=O)(=O)c2ccc(F)cc2)cc1S(=O)(=O)NC[C@H](C)c1ccccc1 [Example 251, 5-[(4-fluorophenyl)sulfonyl]-2-methyl-N-[(2R)-2-phenylpropyl]benzenesulfonamide]
read-out: Fold Induction with SFRP-1, Conc 20 μM, with SFRP-1, fold induction over SFRP-1 control, single dose
  fold induction at 20 µM: 3
read-out: Fold Induction without SFRP-1, Conc 20 μM, without SFRP-1, single dose
  fold induction at 20 µM: 0.8

## Cc1ccc(S(=O)(=O)c2ccccc2)cc1S(=O)(=O)NCCCN1CCOCC1 [Example 206, 2-methyl-N-(3-morpholin-4-ylpropyl)-5-(phenylsulfonyl)benzenesulfonamide]
[1]
  fold induction at 15 µM: 2.2
[2]
  fold induction at 15 µM: 0.5

## O=S(=O)(NCCCN1CCOCC1)c1cccc(S(=O)(=O)c2ccccc2)c1 [Example 185, N-(3-morpholin-4-ylpropyl)-3-(phenylsulfonyl)benzenesulfonamide]
[3]
  fold induction at 30 µM: 1.3
[4]
  fold induction at 30 µM: 1.1

## CCc1ccc(S(=O)(=O)c2ccccc2)cc1S(=O)(=O)NCCCN1CCCC1 [Example 232, 2-ethyl-5-(phenylsulfonyl)-N-(3-pyrrolidin-1-ylpropyl)benzenesulfonamide]
[1]
  fold induction at 15 µM: 4.2
[2]
  fold induction at 15 µM: 1.6

## CC(=O)c1ccc(S(=O)(=O)c2ccc(C)c(S(=O)(=O)NC3CCOCC3)c2)cc1 [Example 380, 5-[(4-acetylphenyl)sulfonyl]-2-methyl-N-(tetrahydro-2H-pyran-4-yl)benzenesulfonamide]
[1]
  fold induction at 15 µM: 0.5
[2]
  fold induction at 15 µM: 0.6

## Cc1ccc(S(=O)(=O)c2cc(Cl)ccc2Cl)cc1S(=O)(=O)NCCCn1ccnc1 [Example 345, 5-[(2,5-dichlorophenyl)sulfonyl]-N-[3-(1H-imidazol-1-yl)propyl]-2-methylbenzenesulfonamide]
[1]
  fold induction at 15 µM: 1.6
[2]
  fold induction at 15 µM: 1

## Cc1ccc(S(=O)(=O)c2ccc(C#N)cc2)cc1S(=O)(=O)NC1CCOCC1 [Example 376, 5-[(4-cyanophenyl)sulfonyl]-2-methyl-N-(tetrahydro-2H-pyran-4-yl)benzenesulfonamide]
[1]
  fold induction at 15 µM: 1.5
[2]
  fold induction at 15 µM: 1.1

## O=C(NCCNS(=O)(=O)c1cc(S(=O)(=O)c2ccccc2)ccc1C(F)(F)F)c1ccc(C(F)(F)F)cc1 [Example 781, N-[2-({[5-(Phenylsulfonyl)-2-(trifluoromethyl)phenyl]sulfonyl}amino)ethyl]-4-(trifluoromethyl)benzamide]
  fold induction at 10 µM: 1.2

## O=S(=O)(NC1CCNCC1)c1cc(S(=O)(=O)c2ccccc2)ccc1Cl [Example 624, 2-chloro-5-(phenylsulfonyl)-N-piperidin-4-ylbenzenesulfonamide]
[5]
  fold induction at 15 µM: 2.7
[6]
  fold induction at 15 µM: 1.2

## CC(C)(CO)NS(=O)(=O)c1cc(S(=O)(=O)c2ccccc2)ccc1Cl [Example 655, 2-chloro-N-(2-hydroxy-1,1-dimethylethyl)-5-(phenylsulfonyl)benzenesulfonamide]
  fold induction at 10 µM: 1.1
